Measurements taken from article PMC6572184, “New γ-Halo-δ-lactones and δ-Hydroxy-γ-lactones with Strong Cytotoxic Activity” (Molecules, 2019).

What follows are compounds tested on Escherichia coli ATCC 8739 (assay: Bactericidal activity, CFU counting method). Conditions: E. coli ATCC 8739; 18 h at 37 °C; Control 9.47, Control with DMSO 9.30.
Type: cell-based
Description: (§1) The bacterial cultures: Escherichia coli ATCC 8739 and Staphylococcus aureus ATCC 65389 were grown on Luria–Bertani Agar for 18 h at 37 ^∘ C. The strain suspension was prepared in 0.85% saline, with an optical density equivalent to a 0.5 McFarland standard. Next, the following mixtures were prepared: 180 μ L of sterile enriched broth (BTL), 10 μ L of the bacterial suspension and 10 μ L of the tested compound (range 0.1–50 μ g/mL) solubilized in DMSO. As a negative control, only DMSO was added. As a sterility control, 180 μ L of BTL and 20 μ L saline were used. The microtiter plate was incubated at 37 ^∘ C for 18 h. The colony forming unit (CFU) method was used to evaluate the microbial population. The experiment was repeated three times. Gentamicin was used as the reference antibiotic.

SMILES | Number of CFU/mL (× 10^7)
CC1CC(=O)OC(c2ccc(F)cc2)C1Cl (stereo not drawn) [5c, Trans,trans-5-chloro-6-(4-fluorophenyl)-tetrahydro-4-methylpyran-2-one] | 9.46 × 10^7 CFU/mL
CC1CC(=O)OC(c2cccc3ccccc23)C1Cl (mixture of isomers) [6a, Cis,trans-5-chloro-tetrahydro-4-methyl-6-(naphthalen-1-yl)pyran-2-one] | 7.58 × 10^7 CFU/mL
CC1CC(=O)OC(c2ccc(F)cc2)C1Br (stereo not drawn) [7c, Trans,trans-5-bromo-6-(4-fluorophenyl)-tetrahydro-4-methylpyran-2-one] | 6.52 × 10^7 CFU/mL

What follows are compounds tested on Staphylococcus aureus ATCC 65389 (assay: Bactericidal activity, CFU counting method). Conditions: S. aureus ATCC 65389; 18 h at 37 °C; Control 21.36, Control with DMSO 20.85.
Type: cell-based
Description: as §1

SMILES | Number of CFU/mL (× 10^7)
CC1CC(=O)OC(c2ccc(F)cc2)C1Cl (stereo not drawn) [5c, Trans,trans-5-chloro-6-(4-fluorophenyl)-tetrahydro-4-methylpyran-2-one] | 14.83 × 10^7 CFU/mL
CC1CC(=O)OC(c2cccc3ccccc23)C1Cl (mixture of isomers) [6a, Cis,trans-5-chloro-tetrahydro-4-methyl-6-(naphthalen-1-yl)pyran-2-one] | 5.20 × 10^7 CFU/mL
CC1CC(=O)OC(c2ccc(F)cc2)C1Br (stereo not drawn) [7c, Trans,trans-5-bromo-6-(4-fluorophenyl)-tetrahydro-4-methylpyran-2-one] | 6.42 × 10^7 CFU/mL

The compounds below were run on AGS cell lines (human gastric adenocarcinoma) (assay: MTT reduction cytotoxicity assay). Conditions: not given.
Type: cell-based
Description: (§2) Cell cultures: The L929 mouse fibroblasts and human gastric adenocarcinoma cell line AGS were used for in vitro cytotoxicity assays. The cells were maintained under standard conditions (37 ^∘ C, 5% CO 2 ) in 25 cm^2 tissue culture flasks in RPMI-1640 medium supplemented with 10% fetal bovine serum (FBS) and antibiotics: 100 U/mL penicillin and 100 μ g/mL streptomycin. The cell suspension containing 10 ^8 cells in 1 mL, was obtained by treatment of confluent monolayers with 0.25% trypsin solution, washed and subcultured. Cell cultures were supplemented with medium to maintain them in log phase growth. The viability of the cells was assessed by exclusion of trypan blue dye.
(§3) Measurements of cellular metabolic activity and global growth inhibition: L929 cells were seeded into 96-well plates (2 × 10 ^5 cells/well) for 24 h, at 37 ^∘ C, 5% CO2 . Tested compounds 5a–c, 6a–c, 7a–c, 8a–c, 9b,c, 10b,c, 12a and 13a were diluted serially in RPMI-1640 medium in concentrations of 50, 20, 10, 5, 0.5 and 0.1 μ g/mL, added to the cells (100 μ L/well), and incubated under standard conditions for 24 h. The potential harmful effect of lactones on L929 and AGS cells was assessed by the ability of the cells to reduce 3-(4,5-dimethylthiazol-2-yl)-2,5-diphenyltetrazolium bromide (MTT) to formazan. The solution of MTT (5 mg/mL in PBS), was added to each well and the plates were incubated for 4h at 37 ^∘ C. Formazan crystals were dissolved with acidic isopropanol (0.1 M HCl in absolute isopropanol) and the plates were read in a plate reader (Victor 2) at 570 nm. The percentage of MTT reduction was calculated by comparing the absorbance of treated cells to that of untreated control cells. Results are expressed as the mean percentage of viable cells ± standard deviation (SD) of four independent experiments. Statistical significance was accepted at a p-value < 0.05.

SMILES | IC50 [nM]
CC1CC(=O)OC(c2ccc(F)cc2)C1Cl (stereo not drawn) [5c, Trans,trans-5-chloro-6-(4-fluorophenyl)-tetrahydro-4-methylpyran-2-one] | 600
CC1CC(=O)OC(c2cccc3ccccc23)C1Cl (mixture of isomers) [6a, Cis,trans-5-chloro-tetrahydro-4-methyl-6-(naphthalen-1-yl)pyran-2-one] | 1900
CC1CC(=O)OC(c2ccc(F)cc2)C1Br (stereo not drawn) [7c, Trans,trans-5-bromo-6-(4-fluorophenyl)-tetrahydro-4-methylpyran-2-one] | 3500

Same assay, conditions: 0.1 μg/mL, 24 h

SMILES | mean percentage of viable cells ± SD [%]
CC1CC(=O)OC(c2ccc(F)cc2)C1Cl (stereo not drawn) [5c, Trans,trans-5-chloro-6-(4-fluorophenyl)-tetrahydro-4-methylpyran-2-one] | 54 ± 0.12
CC1CC(=O)OC(c2cccc3ccccc23)C1Cl (mixture of isomers) [6a, Cis,trans-5-chloro-tetrahydro-4-methyl-6-(naphthalen-1-yl)pyran-2-one] | 35 ± 0.06
CC1CC(=O)OC(c2ccc(F)cc2)C1Br (stereo not drawn) [7c, Trans,trans-5-bromo-6-(4-fluorophenyl)-tetrahydro-4-methylpyran-2-one] | 63 ± 0.03

Same assay, conditions: 0.5 μg/mL, 24 h

SMILES | mean percentage of viable cells ± SD [%]
CC1CC(=O)OC(c2ccc(F)cc2)C1Cl (stereo not drawn) [5c, Trans,trans-5-chloro-6-(4-fluorophenyl)-tetrahydro-4-methylpyran-2-one] | 47 ± 0.12
CC1CC(=O)OC(c2cccc3ccccc23)C1Cl (mixture of isomers) [6a, Cis,trans-5-chloro-tetrahydro-4-methyl-6-(naphthalen-1-yl)pyran-2-one] | 28 ± 0.07
CC1CC(=O)OC(c2ccc(F)cc2)C1Br (stereo not drawn) [7c, Trans,trans-5-bromo-6-(4-fluorophenyl)-tetrahydro-4-methylpyran-2-one] | 49 ± 0.06

Same assay, conditions: 5 μg/mL, 24 h

SMILES | mean percentage of viable cells ± SD [%]
CC1CC(=O)OC(c2ccc(F)cc2)C1Cl (stereo not drawn) [5c, Trans,trans-5-chloro-6-(4-fluorophenyl)-tetrahydro-4-methylpyran-2-one] | 44 ± 0.10
CC1CC(=O)OC(c2cccc3ccccc23)C1Cl (mixture of isomers) [6a, Cis,trans-5-chloro-tetrahydro-4-methyl-6-(naphthalen-1-yl)pyran-2-one] | 23 ± 0.09
CC1CC(=O)OC(c2ccc(F)cc2)C1Br (stereo not drawn) [7c, Trans,trans-5-bromo-6-(4-fluorophenyl)-tetrahydro-4-methylpyran-2-one] | 42 ± 0.02

Same assay, conditions: 10 μg/mL, 24 h

SMILES | mean percentage of viable cells ± SD [%]
CC1CC(=O)OC(c2ccc(F)cc2)C1Cl (stereo not drawn) [5c, Trans,trans-5-chloro-6-(4-fluorophenyl)-tetrahydro-4-methylpyran-2-one] | 34 ± 0.09
CC1CC(=O)OC(c2cccc3ccccc23)C1Cl (mixture of isomers) [6a, Cis,trans-5-chloro-tetrahydro-4-methyl-6-(naphthalen-1-yl)pyran-2-one] | 19 ± 0.01
CC1CC(=O)OC(c2ccc(F)cc2)C1Br (stereo not drawn) [7c, Trans,trans-5-bromo-6-(4-fluorophenyl)-tetrahydro-4-methylpyran-2-one] | 25 ± 0.12

Same assay, conditions: 20 μg/mL, 24 h

SMILES | mean percentage of viable cells ± SD [%]
CC1CC(=O)OC(c2ccc(F)cc2)C1Cl (stereo not drawn) [5c, Trans,trans-5-chloro-6-(4-fluorophenyl)-tetrahydro-4-methylpyran-2-one] | 21 ± 0.08
CC1CC(=O)OC(c2cccc3ccccc23)C1Cl (mixture of isomers) [6a, Cis,trans-5-chloro-tetrahydro-4-methyl-6-(naphthalen-1-yl)pyran-2-one] | 8 ± 0.09
CC1CC(=O)OC(c2ccc(F)cc2)C1Br (stereo not drawn) [7c, Trans,trans-5-bromo-6-(4-fluorophenyl)-tetrahydro-4-methylpyran-2-one] | 18 ± 0.10

Same assay, conditions: 50 μg/mL, 24 h

SMILES | mean percentage of viable cells ± SD [%]
CC1CC(=O)OC(c2ccc(F)cc2)C1Cl (stereo not drawn) [5c, Trans,trans-5-chloro-6-(4-fluorophenyl)-tetrahydro-4-methylpyran-2-one] | 10 ± 0.12
CC1CC(=O)OC(c2cccc3ccccc23)C1Cl (mixture of isomers) [6a, Cis,trans-5-chloro-tetrahydro-4-methyl-6-(naphthalen-1-yl)pyran-2-one] | 8 ± 0.05
CC1CC(=O)OC(c2ccc(F)cc2)C1Br (stereo not drawn) [7c, Trans,trans-5-bromo-6-(4-fluorophenyl)-tetrahydro-4-methylpyran-2-one] | 8 ± 0.07

These compounds were tested on L929 cell lines (mouse fibroblasts) (assay: MTT reduction cytotoxicity assay). Conditions: 0.1 μg/mL, 24 h.
Type: cell-based
Description: as §2, §3

SMILES | mean percentage of viable cells ± SD [%]
CC1CC(=O)OC(c2ccc(F)cc2)C1Cl (stereo not drawn) [5c, Trans,trans-5-chloro-6-(4-fluorophenyl)-tetrahydro-4-methylpyran-2-one] | 26 ± 0.03
CC1CC(=O)OC(c2cccc3ccccc23)C1Cl (mixture of isomers) [6a, Cis,trans-5-chloro-tetrahydro-4-methyl-6-(naphthalen-1-yl)pyran-2-one] | 15 ± 0.03
CC1CC(=O)OC(c2ccc(F)cc2)C1Br (stereo not drawn) [7c, Trans,trans-5-bromo-6-(4-fluorophenyl)-tetrahydro-4-methylpyran-2-one] | 27 ± 0.08

Same assay, conditions: 0.5 μg/mL, 24 h

SMILES | mean percentage of viable cells ± SD [%]
CC1CC(=O)OC(c2ccc(F)cc2)C1Cl (stereo not drawn) [5c, Trans,trans-5-chloro-6-(4-fluorophenyl)-tetrahydro-4-methylpyran-2-one] | 21 ± 0.15
CC1CC(=O)OC(c2cccc3ccccc23)C1Cl (mixture of isomers) [6a, Cis,trans-5-chloro-tetrahydro-4-methyl-6-(naphthalen-1-yl)pyran-2-one] | 11 ± 0.08
CC1CC(=O)OC(c2ccc(F)cc2)C1Br (stereo not drawn) [7c, Trans,trans-5-bromo-6-(4-fluorophenyl)-tetrahydro-4-methylpyran-2-one] | 21 ± 0.08

Same assay, conditions: 5 μg/mL, 24 h

SMILES | mean percentage of viable cells ± SD [%]
CC1CC(=O)OC(c2ccc(F)cc2)C1Cl (stereo not drawn) [5c, Trans,trans-5-chloro-6-(4-fluorophenyl)-tetrahydro-4-methylpyran-2-one] | 14 ± 0.09
CC1CC(=O)OC(c2cccc3ccccc23)C1Cl (mixture of isomers) [6a, Cis,trans-5-chloro-tetrahydro-4-methyl-6-(naphthalen-1-yl)pyran-2-one] | 9 ± 0.15
CC1CC(=O)OC(c2ccc(F)cc2)C1Br (stereo not drawn) [7c, Trans,trans-5-bromo-6-(4-fluorophenyl)-tetrahydro-4-methylpyran-2-one] | 17 ± 0.02

Same assay, conditions: 10 μg/mL, 24 h

SMILES | mean percentage of viable cells ± SD [%]
CC1CC(=O)OC(c2ccc(F)cc2)C1Cl (stereo not drawn) [5c, Trans,trans-5-chloro-6-(4-fluorophenyl)-tetrahydro-4-methylpyran-2-one] | 10 ± 0.03
CC1CC(=O)OC(c2cccc3ccccc23)C1Cl (mixture of isomers) [6a, Cis,trans-5-chloro-tetrahydro-4-methyl-6-(naphthalen-1-yl)pyran-2-one] | 7 ± 0.07
CC1CC(=O)OC(c2ccc(F)cc2)C1Br (stereo not drawn) [7c, Trans,trans-5-bromo-6-(4-fluorophenyl)-tetrahydro-4-methylpyran-2-one] | 11 ± 0.08

Same assay, conditions: 20 μg/mL, 24 h

SMILES | mean percentage of viable cells ± SD [%]
CC1CC(=O)OC(c2ccc(F)cc2)C1Cl (stereo not drawn) [5c, Trans,trans-5-chloro-6-(4-fluorophenyl)-tetrahydro-4-methylpyran-2-one] | 4 ± 0.06
CC1CC(=O)OC(c2cccc3ccccc23)C1Cl (mixture of isomers) [6a, Cis,trans-5-chloro-tetrahydro-4-methyl-6-(naphthalen-1-yl)pyran-2-one] | 6 ± 0.03
CC1CC(=O)OC(c2ccc(F)cc2)C1Br (stereo not drawn) [7c, Trans,trans-5-bromo-6-(4-fluorophenyl)-tetrahydro-4-methylpyran-2-one] | 5 ± 0.05

Same assay, conditions: 50 μg/mL, 24 h

SMILES | mean percentage of viable cells ± SD [%]
CC1CC(=O)OC(c2ccc(F)cc2)C1Cl (stereo not drawn) [5c, Trans,trans-5-chloro-6-(4-fluorophenyl)-tetrahydro-4-methylpyran-2-one] | 2 ± 0.12
CC1CC(=O)OC(c2cccc3ccccc23)C1Cl (mixture of isomers) [6a, Cis,trans-5-chloro-tetrahydro-4-methyl-6-(naphthalen-1-yl)pyran-2-one] | 2 ± 0.09
CC1CC(=O)OC(c2ccc(F)cc2)C1Br (stereo not drawn) [7c, Trans,trans-5-bromo-6-(4-fluorophenyl)-tetrahydro-4-methylpyran-2-one] | 1 ± 0.03
